Results taken from paper PMC5728534 (PLoS ONE, 2017).
Numbering of substitutions follows the chain as printed. “Also recorded” adds a separate entry of the source.

Assays:
[1] = biological target: T1, OCT1*6 (Cys88Arg/Met420del) (Homo sapiens, UniProt O15245, C88R/DEL420-420/L160F); assay: Ranitidine uptake in HEK293 cells overexpressing OCT1*6; type: in vitro ADME; settings: 1 μM and 10 μM ranitidine, 2 min
T1 construct: expressed in transfected cells; host or cells: HEK293 T-REx (Flp-In)
T1 sequence (O15245 with tags, fused parts or gaps C88R/L160F/DEL420-420): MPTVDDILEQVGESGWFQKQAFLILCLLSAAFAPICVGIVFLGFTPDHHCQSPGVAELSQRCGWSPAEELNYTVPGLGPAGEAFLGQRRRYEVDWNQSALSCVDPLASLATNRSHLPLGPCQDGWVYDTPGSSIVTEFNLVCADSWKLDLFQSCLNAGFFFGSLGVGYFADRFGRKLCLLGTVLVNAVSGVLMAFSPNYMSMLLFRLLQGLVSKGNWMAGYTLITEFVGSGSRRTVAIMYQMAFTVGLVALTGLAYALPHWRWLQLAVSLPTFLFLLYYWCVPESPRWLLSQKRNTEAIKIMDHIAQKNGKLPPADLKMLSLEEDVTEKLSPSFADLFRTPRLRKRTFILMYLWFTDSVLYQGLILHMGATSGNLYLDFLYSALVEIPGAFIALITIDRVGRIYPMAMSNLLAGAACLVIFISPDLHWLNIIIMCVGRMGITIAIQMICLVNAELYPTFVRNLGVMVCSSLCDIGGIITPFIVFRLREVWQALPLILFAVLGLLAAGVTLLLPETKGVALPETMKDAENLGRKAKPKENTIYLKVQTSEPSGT
From the text: (§1) HEK293 or CHO cells overexpressing the human OCT1 alleles *1A (characterized by the amino acid substitution Met408Val), *1B, *1C (Phe160Leu), *1D (Pro341Leu/Met408Val), *2 (Met420del), *3 (Arg61Cys), *4 (Gly401Ser), *5 (Gly465Arg/Met420del), *6 (Cys88Arg/Met420del), *7 (Ser14Phe), *8A (Arg488Met), *8B (Arg488Met/Met408Val), *9 (Pro117Leu), *10 (Ser189Leu), *11 (Ile449Thr), *12 (Ser29Leu), or *13 (Thr245Met), the human OCT2 reference and variant alleles (Ala270Ser), human OCT3, and the control cells (transfected with the empty pcDNA5 vector) were generated by targeted chromosomal integration using the Flp-In™ System (Life Technologies, Darmstadt, Germany).
(§2) Six hundred thousand HEK293 or CHO cells were plated per well in 12-well plates (pre-coated with poly-D-lysine) and were grown for 48 hours to reach confluence. Cells were kept at 37°C and 5% CO2 in DMEM (HEK293) or RPMI (CHO), supplemented with 10% FCS, 100 U/ml penicillin, and 100 μg/ml streptomycin. Uptake experiments were performed at pH 7.4 using HBSS supplemented with 10 mM HEPES buffer (herein referred to as HBSS+). […]
(§3) For all transport measurements, the intracellular amount of substrate was normalized to the total amount of protein of the sample as measured using the bicinchoninic acid assay [49].
(§4) For quantification of intracellular substrates, the cell debris were removed by centrifugation at 17,000 x g for 10 min. […]

OCT1*1A (Met408Val) = biological target: T2, OCT1*1A (Met408Val) (Homo sapiens, UniProt O15245, L160F/M408V); settings: 1 and 10 μM ranitidine, 2 min
T2 sequence (O15245 1-554 L160F/M408V): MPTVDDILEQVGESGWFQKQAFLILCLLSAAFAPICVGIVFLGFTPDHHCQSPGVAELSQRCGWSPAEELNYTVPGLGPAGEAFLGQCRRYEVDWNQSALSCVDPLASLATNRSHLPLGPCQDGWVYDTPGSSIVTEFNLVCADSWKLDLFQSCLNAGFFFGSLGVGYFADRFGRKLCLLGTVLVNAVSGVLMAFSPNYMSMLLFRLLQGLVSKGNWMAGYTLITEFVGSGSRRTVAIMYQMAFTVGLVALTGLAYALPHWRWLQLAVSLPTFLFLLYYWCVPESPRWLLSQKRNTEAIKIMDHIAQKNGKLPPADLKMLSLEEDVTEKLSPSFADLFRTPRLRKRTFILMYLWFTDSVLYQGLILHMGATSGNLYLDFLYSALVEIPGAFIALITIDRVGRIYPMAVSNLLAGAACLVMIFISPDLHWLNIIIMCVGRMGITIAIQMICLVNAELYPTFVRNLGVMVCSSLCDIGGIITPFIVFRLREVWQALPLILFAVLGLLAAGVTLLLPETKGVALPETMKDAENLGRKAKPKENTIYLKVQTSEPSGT
From the text: as §1, §2, §3, §4

OCT1*3 (Arg61Cys) = biological target: T3, OCT1*3 (Arg61Cys) (Homo sapiens, UniProt O15245, L160F/R61C)
T3 sequence (O15245 1-554 R61C/L160F): T2 sequence (O15245 1-554 L160F/M408V) with R61C, V408M
From the text: as §1, §2, §3, §4

OCT1*8 (Arg488Met) = biological target: T4, OCT1*8 (Arg488Met) (Homo sapiens, UniProt O15245, L160F/R488M); settings: not statistically significant (P = 0.5)
T4 sequence (O15245 1-554 L160F/R488M): T2 sequence (O15245 1-554 L160F/M408V) with V408M, R488M
From the text: as §1, §2, §3, §4

`CNC(=C[N+](=O)[O-])NCCSCc1ccc(CN(C)C)o1` [ranitidine, Ranitidine] was tested, and the ranitidine transport activity [1] was “completely lacked ranitidine uptake; also recorded: complete lack of ranitidine transport activity”, the “uptake of ranitidine compared to the reference allele” value (OCT1*1A (Met408Val)) was “no significant difference” and the “decrease of vmax compared to the reference allele” value (OCT1*3 (Arg61Cys)) was “more than 50%”. The “increase in vmax compared to the reference allele” value (OCT1*8 (Arg488Met)) was 25%.
